{"source": "paper PMC9515143", "about": "“Phosphorylation of Jhd2 by the Ras-cAMP-PKA(Tpk2) pathway regulates histone modifications and autophagy” (Nature Communications, 2022)", "key": {"Tpk2-as [1]": {"system": "Tpk2-as", "assay": "In vitro kinase assay, Tpk2-as, Jhd2 substrate", "format": "biochemical, budding yeast (Saccharomyces cerevisiae)", "conditions": "25 μM 1NM-PP1, in vitro kinase assay, 30 °C, Western blot", "description": "(§1) 0–300 ng purified Jhd2 was mixed with or without 200 ng TAP purified Tpk2 in 2×kinase reaction buffer (100 mM Tris-HCl pH 7.4, 100 mM MgCl2, 10 mM ATP, 0.2 μM PMSF, 1 mM Na3VO4, 5% glycerol) at 30 °C. Equal aliquots were taken at different time points, and the reaction was quenched by adding 2×SDS-PAGE loading buffer and incubated at 95 °C for 10 min. Boiled samples were resolved on 10% SDS-PAGE and subjected to Western blot analysis."}, "WT Tpk2": {"system": "WT Tpk2", "assay": "In vitro kinase assay, WT Tpk2, Jhd2 substrate", "format": "biochemical, budding yeast (Saccharomyces cerevisiae)", "conditions": "25 μM 1NM-PP1, in vitro kinase assay, 30 °C, Western blot", "description": "as §1"}, "Tpk2-as [2]": {"system": "Tpk2-as", "assay": "Intracellular H3K4me3 in Tpk2-as mutant with 1NM-PP1", "format": "cell-based, budding yeast (Saccharomyces cerevisiae)", "conditions": "25 μM 1NM-PP1, 0.5 hr, Western blot", "description": "(§2) To examine the effect of glucose on histone modifications, yeast cells were grown in 2% glucose-containing YPD (Yeast Extract Peptone Dextrose) medium until OD600 of 0.7–1.0. Cells were then collected, washed and resuspended in YP medium for 3 hr followed by treatment with different concentrations of glucose for 0.5 hr. For 1NM-PP1 (MCE, HY-13804) treatment, cells were grown in 2% YPD until OD600 of 0.7–1.0. Cells were then treated with 25 μM 1NM-PP1 for 0.5 hr. For FBP and pyruvate treatment, cells were pre-treated with Zymolase (Mpbio, 08320921) to increase the permeability. In brief, cells were grown in YPD medium until OD600 of 0.7–1.0, centrifuged and resuspended in 1 ml SB buffer (100 mM Sorbitol, 20 mM Tris pH 7.4). 10 μl Zymolase was then added and incubated at 30 °C for 15 min. The spheroplasts were washed and cultured in YPD medium containing different concentrations of FBP and pyruvate for 3 hr.\n(§3) Cells were grown in 5 ml YPD or selective medium until OD600 of 0.7–1.0. Cells were harvested and lysed in alkaline lysis buffer (2 M NaOH, 8% 2-mercaptoethanol). After centrifugation, the protein pellet was resuspended in 150 μl 2×SDS-sample buffer. Protein samples were separated by 8–15% SDS-PAGE and transferred to PVDF membrane. […] The protein bands were visualized using the ECL Chemiluminescence Detection Kit (Bio-Rad, 170–5061) and quantified with Image J software (v.1.8.0). […]"}, "Tpk1-as": {"system": "Tpk1-as", "assay": "Intracellular H3K4me3 in Tpk1-as mutant with 1NM-PP1", "format": "cell-based, budding yeast (Saccharomyces cerevisiae)", "conditions": "25 μM 1NM-PP1, 0.5 hr, Western blot", "description": "as §2, §3"}, "Tpk3-as": {"system": "Tpk3-as", "assay": "Intracellular H3K4me3 in Tpk3-as mutant with 1NM-PP1", "format": "cell-based, budding yeast (Saccharomyces cerevisiae)", "conditions": "25 μM 1NM-PP1, 0.5 hr, Western blot", "description": "as §2, §3"}, "Tpk2-as [3]": {"system": "Tpk2-as", "assay": "Intracellular Jhd2 phosphorylation in Tpk2-as mutant with 1NM-PP1", "format": "cell-based, budding yeast (Saccharomyces cerevisiae)", "conditions": "25 μM 1NM-PP1, 0.5 hr, Western blot", "description": "as §2, §3"}, "WT cells": {"system": "WT cells", "assay": "Intracellular Jhd2 phosphorylation in WT cells with 1NM-PP1", "format": "cell-based, budding yeast (Saccharomyces cerevisiae)", "conditions": "25 μM 1NM-PP1, 0.5 hr, Western blot", "description": "as §2, §3"}}}
{"smiles": "CC(C)(C)n1nc(Cc2cccc3ccccc23)c2c(N)ncnc21", "note": "[1NM-PP1]", "values": [{"measurement": "inhibition of Tpk2-catalyzed Jhd2 phosphorylation in vitro, Tpk2-as", "setting": "Tpk2-as [1]", "result": "directly inhibited Tpk2-catalyzed Jhd2 phosphorylation"}, {"measurement": "Jhd2 phosphorylation in vitro, WT Tpk2", "setting": "WT Tpk2", "result": "Jhd2 was phosphorylated by WT Tpk2 but not Tpk2-as mutant when treated with 25 μM 1NM-PP1"}, {"measurement": "intracellular H3K4me3, Tpk2-as mutant", "setting": "Tpk2-as [2]", "result": "significantly reduced by 1NM-PP1 in Tpk2-as mutant"}, {"measurement": "intracellular H3K4me3, Tpk1-as mutant", "setting": "Tpk1-as", "result": "significantly reduced by 1NM-PP1 in Tpk2-as mutant but not Tpk1-as and Tpk3-as mutants"}, {"measurement": "intracellular H3K4me3, Tpk3-as mutant", "setting": "Tpk3-as", "result": "significantly reduced by 1NM-PP1 in Tpk2-as mutant but not Tpk1-as and Tpk3-as mutants"}, {"measurement": "intracellular Jhd2 phosphorylation, Tpk2-as mutant", "setting": "Tpk2-as [3]", "result": "significantly reduced in Tpk2-as mutant"}, {"measurement": "intracellular Jhd2 phosphorylation, WT cells", "setting": "WT cells", "result": "significantly reduced in Tpk2-as mutant but not WT cells"}]}
